The values below come from patent US20120065123A1, “Synthetic Antibodies” (priority 2009, published 2012).

Where no end group is shown, it is not given here.

Assay [1] addresses T1, Transferrin (Homo sapiens, UniProt P02787). Kind of assay: Peptide microarray ranking, labeled transferrin with E. coli lysate competitor. It is filed as binding. Here is the method: Several polypeptides were identified as candidate affinity elements for synbodies against an arbitrarily chosen protein target, transferrin, by incubating transferrin on the polypeptide microarray in the presence of E. coli lysate competitor. Transferrin was randomly direct-labeled at free amines with Alexa™ 555, and E. coli lysate was randomly direct-labeled at free amines with Alexa™ 647. Three replicate arrays were passivized by applying a mixture of BSA and mercaptohexanol for one hour. The arrays were blocked with unlabelled E. coli lysate for one hour, then washed three times with TBST (0.05% Tween) followed by three times with water. A mixture of labeled transferrin and labeled E. coli lysate was applied to the three replicate arrays and incubated for three hours. The arrays were again washed three times with TBST (0.05% Tween) followed by three times with water, and scanned at 555 nm and 647 nm using an array reader. Polypeptides were ranked as candidates for inclusion as affinity elements of synbodies by computing a score for each polypeptide equal to the mean raw 555 nm intensity over the six replicate features, squared, divided by the mean raw 647 nm intensity over the six replicate features. This simple scoring function tends to favor candidate polypeptides that bind at least moderate affinity, since otherwise the 555 nm intensity would be relatively lower, and that are relatively specific, since otherwise the 647 nm intensity would be relatively higher and contribute to a relatively lower score. Many variations of this ranking and identification process can be used, such as, by way of non-limiting examples, two-color comparisons against other competitors; comparisons with data taken in separate experiments with respect to other targets; and use of scoring functions taking into account other factors, employing other functional relationships, and/or involving statistical analysis and/or preprocessing of data and/or correcting for background fluorescence and/or other factors affecting the accuracy of the measured intensities. Ten polypeptides (Table 1) were identified for further evaluation for use as affinity elements in synbodies by choosing the polypeptides having the highest score (one polypeptide was rejected as difficult to synthesize, so the polypeptides chosen were ten of those having the eleven highest scores).
After preparation of the array in accordance with the methods previously described in Example 2, the array was washed one time for five minutes in 7.33% acetonitrile, 37% isopropanol, 0.55% trifluoroacetic acid, and 55% water. Alexa 555 labeled target protein transferrin was applied, together with Alexa 647 labeled E. coli lysate competitor, to the prewashed array and to an identical array without organic prewash. […] 5,010 on the array without organic prewash, but ranked no. 9601 on the prewashed array. Conversely, peptide TRF-21, shown by SPR analysis to be a relatively strong binder of transferrin, rose in rank from 84 on the non-prewashed array to rank no. 5 on the prewashed array.

Assay [2] has as its target T1, Transferrin. The experiment in a line: SPR solution phase KD of candidate affinity elements, transferrin immobilized (Biacore T100). Type of assay: binding. The note with it: steady-state response, 25° C., PBST. As for the experimental part:
Transferrin 25 μg/ml in immobilization buffer selected for correct pH was then applied 302 at a flow rate of 5 to 10 μl/min for a contact time of about 5 to 10 minutes, allowing the amine functionality on the transferrin 308 to displace the activated NHS ester and bond to the surface via an amide bond. Finally, ethylene diamine (1M ethylene diamine-HCl at pH 8.5) was applied 304 at a flow rate of 5 to 10 μl/min for a contact time of about 6 to 7 minutes to deactivate any remaining reactive groups on the dextran chip surface. Flow rates and contact times are adjusted as necessary to provide the surface concentration of target desired for the intended application, and may vary by target. In general, for evaluating whether binding occurs, it is preferable to immobilize a relatively large quantity of target, and higher flow rates and/or longer contact times may be used. For determining kinetics, it is preferable to limit the amount of target immobilized so as to minimize rebinding and avidity effects, and lower flow rates and/or contact times may be used.
Candidate affinity elements for the transferrin synbody TRF19, TRF21, TRF23, TRF24, TRF25, and TRF26 were individually evaluated for solution phase KD with respect to transferrin by SPR analysis. Because the off rates for these polypeptides were very high, KD values were estimated by measuring steady-state response for at least five concentrations in a two-fold dilution series, each concentration tested in duplicate. For each experiment, response data were processed using a reference surface to correct for bulk refractive index changes and any non-specific binding. Data were also double referenced using responses from blank running buffer injections. Each experiment was conducted at 25° C. using PBST (0.01M Phosphate Buffered Saline, 0.138M NaCl, 0.0027M KCl, 0.05% surfactant Tween20, pH 7.4) as the running buffer on a Biacore T100 instrument. Analytes were injected for 60 s at a flow rate of 30 μl/min. The antigen surfaces were regenerated with 30 s consecutive pulses of NaOH/NaCl (50 mM NaOH in 1M NaCl) and Glycine (10 mM glycine-HCl, pH 2.5).

In assay [3] the target is T1, Transferrin. The experiment in a line: Affinity characterization of TRF26 lead and selected mutants. Type of assay: binding. Here is the method: Two TRF26 point-mutants (P6Y, H12F) were selected for further affinity characterization. The P6Y and H12F point-mutants have dissociation constants of 8.6±1.6 μM and 9.8±1.6 μM respectively. […] A TRF26 double mutant sequence containing the P6Y+H12F mutations was synthesized and characterized.

The target in assay [4] is T1, Transferrin. Kind of assay: SPR analysis of peptide pairs for binding to distinct sites on target. The note with it: peptides applied in 1:1 mixtures in pairs. The text has this: The transferrin target was immobilized on a Biacore T100 SPR chip, and candidate polypeptides were applied in 1:1 mixtures in pairs and response data obtained, in accordance with the methods described in Example 4 above. As illustrated in FIGS. 12A-D, upon flowing candidate polypeptides over the immobilized target, ideally one polypeptide applied alone would bind to a first binding site on the target and produce a first characteristic SPR response level (FIG. 12A), the other polypeptide would bind to a second, distinct binding site on the target, producing a second characteristic response level (FIG. 12B), and a mixture of the two polypeptides together (at the same concentrations as before) would produce a response level approximating the sum of the response levels produced by each polypeptide alone, as the polypeptides bind to distinct binding sites (FIG. 12C).
(In SPR one partner is held on a chip, and binding of the other changes the refractive index at the surface.)

Assay [5] deals with T2, pooled human transferrin (Homo sapiens, UniProt P02787).
T2 construct: purchased Sigma
Kind of assay: High throughput SPR screening of peptides (Biacore A-100). Type of assay: binding. The note with it: purified peptide, several concentrations; read-out: KD with respect to transferrin. As for the experimental part:
Peptide affinity element candidates were screened against target proteins immobilized on the SPR surface. Each target protein was modified with biotin using the following procedure: NHS-LC-LC-Biotin (Pierce Biotechnology) was re-suspended in DMSO at a concentration of 7.13 mM. Each protein was prepared in 100 mM PBS pH 7.5 at a concentration of ˜50 μM. NHS-LC-LC-Biotin was then added to the protein solution at a 3:1 or 5:1 molar ratio. The reaction was performed for 2 hours at room temperature and the protein sample was analyzed by MALDI mass spectrometry to determine the number of biotin molecules added per molecule of protein. Excess NHS-LC-LC-Biotin was removed using a 3 kDa spin filter. The target proteins for which data is shown in this example were pooled human transferrin (Sigma) and purified bovine ubiquitin.
A Biacore A-100 Surface Plasmon Resonance (SPR) system was used to measure the binding response of each peptide to several different target proteins immobilized on a gold surface. […] Each biotinylated protein was injected over a single spot and the amount of protein captured was measured. […]
Data analysis was performed using the A-100 Evaluation software package that analyzes and filters the data using a variety of measures of quality control for each sensorgram. […] In this manner a relative measure of the specificity of binding for each peptide was determined. […]

The target in assay [6] is T3, TNF-α (Homo sapiens, UniProt P01375). The experiment in a line: Fluorescence anisotropy validation of TNF1-opt affinity. Type of assay: binding. Here is the method: Affinity Characterization of Double, Triple and Quadruple Mutants. […] In all cases, an improvement in TNF-α affinity was observed when an additional enhancing substitution was added to the sequence. Double mutants were better than the corresponding single mutants, triple mutants were better than the corresponding single/double mutants and the quadruple mutant was better than the corresponding single/double/triple mutants (FIG. 71, Table 2).
(In general: Polarisation of emitted light reports the rotation of a fluorescent probe.)

The target of assay [7] is T3, TNF-α. Kind of assay: SPR of TNF1 lead and mutant peptides on captured TNF-α (Biacore A100). Type of assay: binding. Conditions: several sensorgrams; read-out: Kd determined from kinetic fits.
The target of assay [8] is T3, TNF-α. The assay is described as above. It is filed as binding. From the text:
Scanning Mutagenesis of the TNF1 Lead Peptide. After lead identification, the next step in the AMPLI algorithm is characterization of point mutations in the lead heteropolymer. Using short peptides makes it chemically feasible to synthesize a significant fraction of the point-mutant space, which can then be screened for enhanced point mutations. For example, all possible point mutations in the 17 randomized positions using all 20 natural amino acids could be synthesized and screened within a single 384-well plate (323 total point-mutants). However, libraries containing all 20 natural amino acids are not required for affinity optimization of protein-protein interactions. A library of TNF1 point-mutants containing all substitutions of the amino acid set {Y, A, D, S, K, N, V, W} in each of the 17 randomized positions (132 unique point-mutants) was synthesized. Tyrosine (Y), alanine (A), aspartic acid (D) and serine (S) were selected because of their effectiveness in producing high affinity interactions when substituted into the complementary-determining regions (CDRs) of synthetic antibodies (Felouse, Proceedings of the National Academy of Sciences 101(34):12467, 2004), lysine (K) was selected to balance the charge in the substitution set, asparagine (N), valine (V) and tryptophan (W) were selected to span the hydropathicity range (Kyte J & Doolittle R F, Journal of Molecular Biology 157(1):105-132, 1982). […] This concentration was used to increase the high-end dynamic range for quantifying enhancing point mutations at the expense of low-end dynamic range for quantifying detrimental point mutations.
Point-mutant libraries were prepared in 96-well stock plates From the stock plate, peptides were diluted to 50 μM concentration in Biacore HBS-EP buffer (GE Healthcare, Piscataway, N.J.) containing 1 mg/ml carboxymethyl-dextran (Sigma-Aldrich, St. Louis, Mo.) to reduce non-specific binding to the CM-5 SPR chip surface. TNF-α was captured on a CM-5 chip surface at different capture levels on spots 1, 2, 4, and 5 across all four flow cells corresponding to a 40-200 RU range of predicted Rmax binding responses. Spot 3 contained only immobilized neutravidin and served as a reference spot.
Using the prepared 96-well plates and Biacore A100 SPR instrument, four peptides were flowed separately, in parallel, through the four flow cells over all 4 TNF-α spots and the neutravidin reference spot, with a 60 second association phase and 300 second dissociation phase. SPR sensorgrams were recorded for each peptide response with all 4 TNF-α spots and the neutravidin reference spot across the four flow cells on the SPR chip. Surface regeneration was performed after every 12 injections in each flow cell with Biacore Glycine 2.5 regeneration solution (GE Healthcare, Piscataway, N.J.). Point-mutant reference subtracted, peptide molecular weight adjusted, responses at the late binding region of the sensorgram (a few seconds before dissociation) were compared to the response of the TNF1 lead
Purified point-mutant affinities were measured on the Biacore A100 using SPR equilibrium binding response across a series of peptide concentrations on an SPR chip with TNF-α captured as described above.
These sequences were synthesized and purified using standard solid-phase FMOC synthesis and HPLC purification.

T3 sequence (P01375 77-233 limits assumed, species assumed): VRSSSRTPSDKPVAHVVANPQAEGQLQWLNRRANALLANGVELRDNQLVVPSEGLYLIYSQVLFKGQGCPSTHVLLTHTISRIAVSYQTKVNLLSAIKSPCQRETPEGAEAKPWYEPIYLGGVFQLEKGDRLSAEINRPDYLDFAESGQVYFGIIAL
T1 sequence (P02787 20-698): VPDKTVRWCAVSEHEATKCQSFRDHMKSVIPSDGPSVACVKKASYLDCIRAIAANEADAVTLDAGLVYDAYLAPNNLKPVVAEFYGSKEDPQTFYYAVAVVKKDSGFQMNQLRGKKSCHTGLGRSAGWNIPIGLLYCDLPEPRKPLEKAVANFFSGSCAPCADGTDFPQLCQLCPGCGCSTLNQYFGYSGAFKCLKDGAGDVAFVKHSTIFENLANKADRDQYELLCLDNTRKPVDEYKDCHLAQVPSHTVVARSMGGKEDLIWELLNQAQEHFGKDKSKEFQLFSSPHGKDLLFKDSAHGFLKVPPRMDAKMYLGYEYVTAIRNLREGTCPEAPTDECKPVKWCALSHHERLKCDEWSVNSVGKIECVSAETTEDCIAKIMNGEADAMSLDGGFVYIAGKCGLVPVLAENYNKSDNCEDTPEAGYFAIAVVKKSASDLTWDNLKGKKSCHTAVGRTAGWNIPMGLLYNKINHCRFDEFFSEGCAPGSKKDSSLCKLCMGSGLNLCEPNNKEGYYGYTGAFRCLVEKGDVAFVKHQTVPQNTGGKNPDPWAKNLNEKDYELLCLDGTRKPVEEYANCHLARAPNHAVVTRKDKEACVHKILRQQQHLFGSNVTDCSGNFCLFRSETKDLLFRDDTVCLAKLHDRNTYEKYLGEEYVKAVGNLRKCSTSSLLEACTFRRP
T2 sequence (P02787 20-698): as above

With AHKVVPQRQIRHAYNRYGSC [TRF26], in assay [1] (array with organic prewash), the Rank -- prewash is on record as 436. In assay [1] (array without organic prewash), this sequence displayed a Rank - non-prewash of 596. In assay [2], this sequence came in with a Kd of about 100000 nM. In assay [3], the “Binding ΔG (observed)” value was -5.56 ± 0.10 kcal/mol. Besides, in assay [4], the “binding to distinct sites on transferrin” value is on record as “bind distinct sites on transferrin”.

Consider ARDLLIQKNSGQDVDHRGSC [TRF101], for which, in assay [5], the Kd was found to be 78900 ± 27000 nM.

On to FERSYLKMPWKFLQSRQGSC [TNF1-opt], for which the Kd was 1100 ± 200 nM in assay [6]; 700 ± 20 nM in assay [7]; 1600 ± 300 nM in assay [8] (SPR equilibrium binding response, read-out: Kd (observed)); 700 to 1900 nM in assay [8] (energetic additivity of component mutations, read-out: Predicted Kd). Further, the “Kd Fold-Change Relative to Lead” value in assay [8] is listed as 100 ± 22. Besides, the “Binding ΔG (observed)” value in assay [8] (calculated from dissociation constants) is -7.97 ± -0.11 kcal/mol.

As usually defined, the Kd is the equilibrium constant for the complex coming apart.
